Source: patent US11957684B2, “Treatment of heavy menstrual bleeding associated with uterine fibroids” (Sumitomo Pharma Switzerland GmbH, priority 2016, dated 2024)
Several values for one entry are separate records, joined by “and”; a condition that tells them apart may be missing. Identical values can stand only once.

Test system: heavy menstrual bleeding associated with uterine fibroids
Assay: Example 5A 12-week placebo-controlled study in uterine fibroids: efficacy (PBAC, volumes, NRS, UFS-QOL, anemia parameters)
Format: in vivo, human
Description: Study participants were Japanese women with HMB (heavy menstrual bleeding) associated with UF (uterine fibroids).
Only the largest myomas among those measurable at Visit 1 were measured throughout the study.
During the period between Visit 2 and 3, in which subjects must have experienced at least 1 regular menstrual cycle, the baseline values concerning efficacy evaluation, including PBAC scores and pain symptoms, were collected. The baseline PBAC score is the total PBAC score for the entire menstrual cycle immediately before Visit 3.
Visit 3 was on Days 1 to 5 of the second menstrual cycle after Visit 1. From Visits 3 to 7, subjects tried to visit the clinics in a fasted state and before taking the study drug.
When a dose was missed before breakfast, subjects took the study drug 30 minutes before either dinner or lunch on the same day.
Pain symptoms, other clinical symptoms and QOL were measured as secondary endpoints. Pain symptoms were evaluated in the patient diary from Visit 1 to the day before Visit 7 using the NRS score. The UFS-QOL score was used to evaluate other clinical symptoms and the QOL of subjects. Subjects completed the UFS-QOL questionnaire at Visits 3, 5, 6 and 7.
In particular, FIGS. 50-52 tabulate hemoglobin concentrations; FIG. 53 tabulates hematocrit percentages; FIG. 54 tabulates serum iron concentrations; and FIG. 55 tabulates ferritin concentrations.
PBAC scores were used in Example 5A, and provide an estimate of menstrual blood loss volume. The PBAC score was evaluated by having subjects record details related to menstrual blood loss on a PBAC score sheet distributed by the sponsor during the treatment period. […] These items represent the level of stained sanitary materials over the course of a menstrual cycle, with a total score ranging from 0 (none) to infinity. Higher scores indicate heavier blood loss. The PBAC score sheet also allows subjects to indicate: whether they experienced bleeding between periods that required sanitary protection; whether they passed clots, and if so, approximate size of the clots; whether they experienced episodes of flooding; and whether they required double protection (used both a pad and tampon simultaneously). As used in the PBAC score sheet of Example 5A, flooding is defined as overflowing, or staining, of clothing or underwear due to menstrual bleeding.
The total PBAC score was derived by summing points for each of the above.
All myoma and uterine volumes referred to herein were evaluated using transvaginal ultrasound. Specifically, the myoma volumes were calculated using the following formula: D1×D2×D3×π/6, where D1 is the longest diameter of the myoma; D2 is the longest diameter of the myoma at an angle perpendicular to D1; and D3 is the diameter of the myoma crossing the intersection of D1 and D2 perpendicular to the D1/D2 plane.

[1] = 20 mg, Week 12, listed as Relugolix
[2] = 40 mg, Week 6-12, listed as Relugolix
[3] = 40 mg, Week 12, listed as Relugolix

SMILES: CONC(=O)Nc1ccc(-c2sc3c(c2CN(C)C)c(=O)n(-c2ccc(OC)nn2)c(=O)n3Cc2c(F)cccc2F)cc1 [Compound 1, N-(4-(1-(2,6-difluorobenzyl)-5-((dimethylamino)methyl)-3-(6-methoxy-3-pyridazinyl)-2,4-dioxo-1,2,3,4-tetrahydrothieno[2,3-d]pyrimidin-6-yl)phenyl)-N′-methoxyurea]
- UFS-QOL HRQL total score (20 mg, Week 8): 9.54±10.904
- UFS-QOL symptom severity score (20 mg, Week 8): 18.53±13.304
- ferritin value (20 mg, Week 8): 16.34 ± 15.659 ng/mL
- myoma volume (20 mg, Week 8): 86.34±103.084 cm^3
- uterine volume (20 mg, Week 8): 290.93±413.549 cm^3
- Fe value (serum iron) (20 mg, Week 12): 85.7 ± 44.40 µg/dL
- Ht value (20 mg, Week 12): 40.54±3.003%
- UFS-QOL HRQL total score (20 mg, Week 12): 9.63±12.735
- UFS-QOL HRQL total, change from baseline (20 mg, Week 12): −2.11±10.529
- UFS-QOL symptom severity score (20 mg, Week 12): 16.56±14.024
- UFS-QOL symptom severity, change from baseline (20 mg, Week 12): −8.97±15.530
- change of Fe value from baseline (20 mg, Week 12): 24.7 ± 53.53 µg/dL
- change of Hb from baseline (20 mg, Week 12): 0.83 ± 1.161 g/dL
- change of Ht value from baseline (20 mg, Week 12): 2.31±3.522%
- change of ferritin value from baseline (20 mg, Week 12): 3.50 ± 10.229 ng/mL
- ferritin value (20 mg, Week 12): 18.03 ± 14.427 ng/mL
- myoma volume (20 mg, Week 12): 75.09±89.699 cm^3
- percent change of myoma volume from baseline (20 mg, Week 12): −36.69±32.631%
- percent change of uterine volume from baseline (20 mg, Week 12): −27.70±28.787%
- uterine volume (20 mg, Week 12): 259.44±322.759 cm^3
- UFS-QOL HRQL total, change from baseline [1]: −2
- UFS-QOL symptom severity, change from baseline [1]: −9
- change of Hb from baseline [1]: 0.8 g/dL
- percent change of myoma volume from baseline [1]: −37%
- percent change of uterine volume from baseline [1]: −28%
- Amenorrhea (PBAC from Week 6 to 12 was 0), number of patients (40 mg (n = 55)): 40 n
- myoma volume (40 mg, Week 2): 109.29±132.534 cm^3
- uterine volume (40 mg, Week 2): 293.51±288.596 cm^3
- NRS score (40 mg, Week 2-6): 0.29±0.564
- subjects who achieved amenorrhea (PBAC = 0) (40 mg, Week 2-6): 54.5%
- subjects with total PBAC score <10 (40 mg, Week 2-6): 65.5%
- NRS score (40 mg, Week 2-12): 0.27±0.535
- subjects with total PBAC score <10 (40 mg, Week 2-12): 61.8%
- Fe value (serum iron) (40 mg, Week 4): 77.6 ± 44.81 µg/dL
- Ht value (40 mg, Week 4): 39.44±4.012%
- UFS-QOL HRQL total score (40 mg, Week 4): 11.31±12.082
- UFS-QOL symptom severity score (40 mg, Week 4): 24.10±16.141
- ferritin value (40 mg, Week 4): 15.14 ± 15.133 ng/mL
- myoma volume (40 mg, Week 4): 100.04±139.060 cm^3
- uterine volume (40 mg, Week 4): 267.74±275.256 cm^3
- NRS score (40 mg, Week 6-12): 0.25±0.542
- change of total PBAC score from baseline (40 mg, Week 6-12): −238.7±203.34
- subjects who achieved amenorrhea (PBAC = 0) (40 mg, Week 6-12): 72.7% and 73%
- subjects with total PBAC score <10 (40 mg, Week 6-12): 83.6%
- total PBAC score (mean±SD) (40 mg, Week 6-12): 21.3±56.11
- NRS score [2]: 0.2
- subjects who achieved amenorrhea (PBAC = 0) [2]: (72.7) %
- Fe value (serum iron) (40 mg, Week 8): 78.2 ± 41.91 µg/dL
- Ht value (40 mg, Week 8): 40.23±3.620%
- UFS-QOL HRQL total score (40 mg, Week 8): 11.20±12.279
- UFS-QOL symptom severity score (40 mg, Week 8): 18.08±15.187
- ferritin value (40 mg, Week 8): 18.10 ± 16.177 ng/mL
- myoma volume (40 mg, Week 8): 86.01±120.639 cm^3
- uterine volume (40 mg, Week 8): 224.91±227.442 cm^3
- Fe value (serum iron) (40 mg, Week 12): 82.0 ± 36.93 µg/dL
- Ht value (40 mg, Week 12): 40.53±3.307%
- UFS-QOL HRQL total score (40 mg, Week 12): 9.52±10.885
- UFS-QOL HRQL total, change from baseline (40 mg, Week 12): −5.52±15.871
- UFS-QOL symptom severity score (40 mg, Week 12): 14.05±15.272
- UFS-QOL symptom severity, change from baseline (40 mg, Week 12): −11.25±17.274
- change of Fe value from baseline (40 mg, Week 12): 25.5 ± 44.43 µg/dL
- change of Hb from baseline (40 mg, Week 12): 0.92 ± 1.183 g/dL
- change of Ht value from baseline (40 mg, Week 12): 2.46±3.445%
- change of ferritin value from baseline (40 mg, Week 12): 8.91 ± 13.131 ng/mL
- ferritin value (40 mg, Week 12): 21.84 ± 21.509 ng/mL
- myoma volume (40 mg, Week 12): 77.88±110.873 cm^3
- percent change of myoma volume from baseline (40 mg, Week 12): −38.59±34.197%
- percent change of uterine volume from baseline (40 mg, Week 12): −40.90±37.233%
- uterine volume (40 mg, Week 12): 208.03±209.312 cm^3
- UFS-QOL HRQL total, change from baseline [3]: −6
- UFS-QOL symptom severity, change from baseline [3]: −11
- change of Hb from baseline [3]: 0.9 g/dL
- percent change of myoma volume from baseline [3]: −39%
- percent change of uterine volume from baseline [3]: −41%
